Measurements from patent publication US8198291B2, “Intranasal opioid compositions” (University of Kentucky Research Foundation, priority 2000, dated 2012).

Columns and labels:
[1] = Pharmacokinetics of butorphanol formulation without benzethonium chloride, Pfeiffer Unitdose Second Generation device; type: in vivo, human; conditions: single 2 mg intranasal dose, unit-dose device
From the text: This formulation had the following spray pattern function when sprayed from the Pfeiffer Unitdose Second Generation device onto an impaction plate from at various distances.
The formulation had the following function and properties when administered to human subjects via the Pfeiffer Unitdose Second Generation spray device.

[2] = Bioavailability/bioequivalence of intranasal butorphanol formulation, unit-dose vs multi-dose spray device; type: in vivo, human
Protocol: This example compares bioavailability of a butorphanol formulation when administered using a unit-dose or multi-dose delivery device. The formulation contains 10 mg butorphanol tartrate, 6.5 mg sodium chloride, 1.0 mg citric acid, 0.20 mg benzethonium chloride in purified water with 1.2 mg sodium hydroxide and hydrochloric acid added to adjust the pH to 5.0. The multi-dose sprayer purports by its label to administer 0.1 ml of liquid composition by metering upon activation by the user. The formulation had the following function and properties when administered to human subjects via the Pfeiffer Unitdose Second Generation spray device.
The second delivery system employed to administer the butorphanol compositions was a unit-dose disposable intranasal applicator that is commercially available from Pfeiffer of America under the designation “Unitdose Second Generation.” Each of the Pfeiffer spray applicators was charged with sufficient liquid to deliver a 0.1 mL dose of the butorphanol test formulation. The glass containers were filled using a pipette under clean conditions, sealed and assembled to the applicator. Each of the applicators was weighed prior to use and after use. Qualified medical personnel administered, one dose into each nostril, after which the applicator was recovered for weighing. In the case of the unit-dose applicators (test formulation), two devices were used for each patient, both of which were discarded following the post-use weighing. The results of these studies of the method and system of the invention and the comparative prior art method follow.
This example assesses the bioequivalence of a butorphanol formulation administered from the unit-dose or multi-dose sprayers described above. The test formulation comprises 1 ml of STADOL NS containing 10 mg butorphanol tartrate, 6.5 mg sodium chloride, 1.0 mg citric acid, 0.20 mg benzethonium chloride in purified water with 1.2 mg sodium hydroxide and hydrochloric acid added to adjust the pH to 5.0. The multi-dose sprayer accompanying STADOL NS purports, by its label, to administer 0.1 ml of liquid. The unit-dose delivery device delivers 0.1 ml of liquid.
The second analysis was to determine whether the intrasubject variabilities of the two spray devices are equal. The study was initiated with 16 subjects, 15 of which completed the study to provide data for this analysis; one subject dropped out after the second period. The following analysis considers both raw and normalized data, with the latter standardized with respect to the dose dispensed.
For both the raw and normalized data, log transformations are applied to the pharmacokinetic endpoints Cmax, AUC ([…]), and AUC(inf.). A mixed effects model was considered for each parameter. Fixed effects for the factors sequence (4 levels), period 3 levels) and formulation (2 levels) were included in the model. Additionally, gender, as well as the interactions between gender and each of sequence, period and formulation was included as a factor in each model to determine whether separate analyses would be necessary for males and females. A total of seven models were considered: Tmax, log of raw Cmax values, log of normalized Cmax values, log transformed values for raw and normalized AUC(last), and log values for raw and normalized AUC(inf.). […] In addition, the lack of significance of the effects included in each model indicate that there was no evidence of unequal carryover between the delivery system of the prior art and that in one embodiment of the present invention.
The mean levels of butorphanol from analysis of the subject's blood plasma reported in pg/ml are plotted against time in FIGS. 1 and 2. The concentration of drug for the unit-dose was unexpectedly higher than that of the multi-dose system. The testing for bioequivalence was done using the method of two one-sided t-test (as described by Bolton, S., Pharmaceutical Statistics. Marcel Dekker, Inc., New York, 1997, pages 415 ff.). […]

[3] = 2 mg intranasal dose, Pfeiffer Unitdose Second Generation spray device, formulation with benzethonium chloride
[4] = 90% CI, line between normCmax and normAUCinf, exponentiated, unit-dose vs multi-dose
[5] = 90% CI, normalized to dispensed dose, exponentiated, unit-dose vs multi-dose
[6] = 90% CI, raw data, exponentiated, unit-dose vs multi-dose
[7] = 90% confidence interval, unit-dose (test) vs multi-dose (reference)
[8] = intranasal, multi-dose spray pump

O=C(O)C(O)C(O)C(=O)O.Oc1ccc2c(c1)[C@@]13CCCC[C@@]1(O)[C@@H](C2)N(CC1CCC1)CC3 [butorphanol tartrate]
Tmax [1]: about 0.25 hr | AUC(0-t) [2, 3]: about 10661 pg*hr/ml | Cmax [2, 3]: about 5230 pg/ml | Tmax [2, 3]: about 0.234 hr | log(AUClast) (second line of the table), Lower Conf Limit for Ratio of Test/Reference [2, 4]: 0.921 | log(AUClast) (second line of the table), Upper Conf Limit for Ratio of Test/Reference [2, 4]: 1.290 | log(normAUCinf), Lower Conf Limit for Ratio of Test/Reference [2, 5]: 0.937 | log(normAUCinf), Upper Conf Limit for Ratio of Test/Reference [2, 5]: 1.220 | log(normCmax), Lower Conf Limit for Ratio of Test/Reference [2, 5]: 0.897 | log(normCmax), Upper Conf Limit for Ratio of Test/Reference [2, 5]: 1.589 | log (AUClast), Lower Conf Limit for Ratio of Test/Reference [2, 6]: 1.037 | log (AUClast), Upper Conf Limit for Ratio of Test/Reference [2, 6]: 1.540 | log (Cmax), Lower Conf Limit for Ratio of Test/Reference [2, 6]: 1.031 | log (Cmax), Upper Conf Limit for Ratio of Test/Reference [2, 6]: 1.855 | log(AUCinf), Lower Conf Limit for Ratio of Test/Reference [2, 6]: 1.050 | log(AUCinf), Upper Conf Limit for Ratio of Test/Reference [2, 6]: 1.461 | Tmax, Lower Conf Limit for Ratio of Test/Reference [2, 7]: 0.749 | Tmax, Upper Conf Limit for Ratio of Test/Reference [2, 7]: 1.132 | AUC(0-t) [2, 8]: 9.329 ng·h/mL | Cmax [2, 8]: 4.072 ng/mL | Tmax [2, 8]: 14.7 min | area under the curve from multi-dose device as percent of that of the test (unit-dose) ([2]; multi-dose vs unit-dose device): 90% | higher area under the curve of test device compared to reference device ([2]; unit-dose vs multi-dose device): 10% | higher serum levels of test device compared to reference device ([2]; unit-dose vs multi-dose device): 10%
